# Where two headings read alike, the source gives them in different places.
# Legend:
# [1] = tested on: adipose-derived mesenchymal stromal cells (AdMSC) from p16Ink4a/Luc mice; test: Luciferase and β-galactosidase activities in senescent and proliferating adipose-derived mesenchymal stromal cells; type: cell-based, mouse
# Description: FIG. 10. Elevated p16(Ink4a) and β-galactosidase is regulated by immunomodulatory agents in macrophages, but not in mesenchymal SCs. Primary cultures of adipose-derived mesenchymal stromal cells (AdMSC) isolated from p16^Ink4a/Luc mice were irradiated (20 Gy) and cultured for 10 days for senescence induction. Mock irradiated cells were used as a proliferating cell control. Response of senescent and proliferating AdMSCs to immunomodulatory agents were compared to that of peritoneal lavage cells elicited by our alginate bead model. A-D) Dose-response curves of LPS (top panels: […]) and Poly(I:C) (bottom panels: C&D) on p16(Ink4a) promoter-dependent luciferase activity (left panels: A&C) and beta-galactosidase activity measured via 4-MUG hydrolysis (right panels: B&D) after 72 hr treatment. No effect on viability was observed via CyQuant Direct assay (>80% viability). Results are shown as the mean±standard deviation for at least 3 experiments.
# Primary cultures of adipose-derived mesenchymal stromal cells (mAdMSC) were established from the stromal vascular fraction of inguinal adipose tissues of young p16^LUC mice, as described. Isolated adherent cultures were maintained in DMEM/F12 medium supplemented with 15% FBS and 1× anti-biotic/anti-mycotic solution (Thermo Fisher Scientific) in a tri-gas tissue culture incubator at 37° C., 5% CO2 and 3% O2. Medium was change twice per week, and cell passaging performed when cells reached ˜80-90% confluency. For induction of senescence, passage 1 cells were irradiated in suspension at 20 Gy, and replated cultures were maintained at 21% 02.
# We investigated whether the mechanisms regulating the expression of these traits in macrophages were similar to those found in SCs. Using cells isolated from p16^Ink4a/Luc mice, the dose-dependent response of luciferase and β-galactosidase activities to immunomodulatory stimuli in macrophages was compared to that of proliferating and irradiation-induced senescent adipose-derived mesenchymal stromal cells. […] LPS stimulation of alginate bead model-elicited macrophages reduced luciferase activity, with maximal inhibition (˜85%) observed at concentrations ≥1 ng/mL (FIG. 10A). In addition, β-galactosidase activity was reduced by 40% at 10 ng/mL (FIG. 10B).
# In contrast, luciferase and β-galactosidase activities were unaltered in senescent and proliferating mesenchyme in response to LPS (up to 1 μg/mL) (FIGS. 10A&B).
# [2] = tested on: p16(Ink4a) in mLF and mVAT fibroblasts; test: Modulation of p16(Ink4a) in mouse lung and visceral adipose tissue-derived fibroblasts; type: cell-based; conditions: for Modulation of p16(Ink4a): mLF and mVAT Senescent: 20Gy irradiation for senescence induction; for Modulation of p16(Ink4a): mLF and mVAT Proliferating: without irradiation
# Description: We next sought to determine whether immunomodulatory agents, and other small molecules, were capable of selectively modulating p16(Ink4a) expression in SAMs by comparing their effects on p16 expression in SAMs to that of mouse lung fibroblasts (mLF) and mouse visceral adipose tissue-derived fibroblasts (mVAT). […] Immunomodulatory agents cause little to no change in p16 expression in fibroblasts. For example, mouse fibroblasts are reported to respond to LPS and IL-4 (expressing TLR4 and IL-4R, respectively), yet these agents are unable to modulate p16 in fibroblasts.
# [3] = tested on: human neonatal dermal fibroblasts (NDF); test: Resazurin viability assay, senescent vs proliferating/quiescent human neonatal dermal fibroblasts; type: cell-based; conditions: for IC50: Homo sapiens, Fibroblast, 72 h, 72 hour exposure; for Selectivity (Prolif/Sen): NDF
# Method: FIG. 2. Compound A1.1 selectively kills senescent human neonatal dermal fibroblasts (NDF) cells in a dose- and time-dependent manner. (FIG. 2A) Normal proliferating and quiescent NDF cells, and the cells made senescent via exposure to genotoxic agents (doxorubicin, bleomycin and gamma-irradiation) were incubated with increasing concentrations of A1.1. At 72 hours post-treatment cell viability was measured via resazurin viability assay. (FIG. 2B) Compound A1.1 selectively kills senescent NDF cells in time-dependent manner discriminating between acute genotoxic stress and senescence. Acutely damaged NDF cells were irradiated with 4 Gy gamma-irradiation 24 hours before A1.1 treatment. Senescent NDF cells were treated with bleomycin or irradiated with 15 Gy and incubated for 14 days to induce senescence before treatment with A1.1. Proliferating acutely damaged and senescent NDF cell were treated with 1.875-30 μM A1.1 and viable cells were measured at 72 hours after treatment. Average and standard deviation are shown.
# Normal proliferating and quiescent NDF cells, and the cells made senescent via exposure to genotoxic agents (doxorubicin, bleomycin and gamma-irradiation) were incubated with increasing concentrations of A1.1. At 72 hours post-treatment cell viability was measured via resazurin viability assay.
# A1.1 selectively kills senescent human neonatal dermal fibroblasts (NDF) cells in time-dependent manner discriminating between acute genotoxic stress and senescence ([…]). Acutely damaged NDF cells were irradiated with 4 Gy gamma-irradiation 24 hours before A1.1 treatment. Senescent NDF cells were treated with bleomycin or irradiated with 15 Gy and incubated for 14 days to induce senescence before treatment with A1.1.
# Cytotoxicity of A1.1 analogs against bleomycin-induced senescent human NDFs and rat dermal fibroblasts (RDFs). Activity of analogs was assessed from dose-response curves against irradiation- or bleomycin-induced senescent and proliferating cells to calculate IC50s (uM). The fold difference of proliferating versus senescent cell IC50s was used to assess the level of specific anti-senescent activity of the compounds.
# For generation senescent human neonatal dermal fibroblasts (NDFs) and adult rat dermal fibroblasts (RDFs), cells are treated at ˜10 ug/ml bleomycin for 3 days (for bleomycin-induced senescence) or irradiated once at 20 Gy using a gamma irradiator (Cs source), followed by at least 7 day recovery in fresh medium for induction of senescence. Senescent and non-senescent (proliferating) cells for each cell line are plated into 384-w plate, followed by 72 hour exposure to a dose titration of compounds. Viability measurements are estimated using the resazurin viability assay. Using GraphPad Prism 5, the IC50 values are calculated from the non-linear regression of log-transformed compound concentrations versus dose-response normalized to background and non-treated controls.
# [4] = proliferating NDF, resazurin, read-out: IC50 NDFprolif
# [5] = senescent NDF, bleomycin-induced, resazurin, read-out: IC50 NDFsen.bleo
# [6] = light or radiation study, senescent NDF, irradiation-induced, resazurin, read-out: IC50 NDFsen.irr
Molecule,p16(Ink4a) response of senescent vs proliferating mesenchymal cells [1],Modulation of p16(Ink4a): mLF and mVAT Senescent [2],Modulation of p16(Ink4a): mLF and mVAT Proliferating [2],other results
IL-4: M2-polarizing cytokine,lacking a differential response,no change,no change,
IL-13: M2-polarizing cytokine,lacking a differential response,no change,no change,
"COc1ccc(C2CC(=NO)c3c(SCc4ccccc4)sc(C(=O)NCc4cccc(F)c4)c3C2)cc1 (centres unmarked) [Example A1.6, 3-(Benzylthio)-N-(3-fluorobenzyl)-4-(hydroxyimino)-6-(4-methoxyphenyl)-4,5,6,7-tetrahydrobenzo[c]thiophene-1-carboxamide]",,no change,no change,"IC50 [3, 4]: > 20 µM; IC50 [3, 5]: < 5 µM; IC50 [3, 6]: < 5 µM"
O=C(NCCCc1cn[nH]c1)c1ccc(-c2ccncc2)c(C#Cc2ccc(F)cc2)c1 [OT-82],,no change,no change,
IFN-α,lacking a differential response,,,
Poly(I:C),,no change,no change,
CCOC(=O)c1sc(SCc2ccccc2)c2c1CC(c1ccc(OC)cc1)C/C2=N\O (centres unmarked) [Example A1.1],,,,"IC50 [3, 4]: > 20 µM; IC50 [3, 5]: < 5 µM; IC50 [3, 6]: < 10 µM; Selectivity (Prolif/Sen) ([3]; Bleomycin): 5.3; Selectivity (Prolif/Sen) ([3]; Irradiation): 2.9; effect on viability of proliferating or quiescent NDF cells ([3]; concentrations up to 10 μM, 72 hours, resazurin): no significant effect"
"IFN-γ: type II interferon, M1-inducing agent (protein, UniProt P01579 24-161, looked up) Interferon gamma: QDPYVKEAENLKKYFNAGHSDVADNGTLFLGILKNWKEESDRKIMQSQIVSFYFKLFKNFKDDQSIQKSVETIKEDMNVKFFNSNKKKRDDFEKLTNYSVTDLNVQRKAIHELIQVMAELSPAAKTGKRKRSQMLFRG",lacking a differential response,,,

# — patent publication US20200123127A1, “REMOVAL OF SENESCENCE-ASSOCIATED MACROPHAGES” (EVERON BIOSCIENCES, INC., priority 2016, published 2020)
